Assays:
Type in all cases: in vivo
[1] = system: Amaranthus retoflexus (AMARE); assay: Post-emergence herbicidal glasshouse test; conditions: evaluated after 13 days, five point scale
Experimental: (§1) Seeds of a variety of test species are sown in standard soil in pots (Lolium perenne (LOLPE), Solanum nigrum (SOLNI), Amaranthus retoflexus (AMARE), Setaria faberi (SETFA), Echinochloa crus-galli (ECHCG), Ipomoea hederacea (IPOHE)). After cultivation for one day (pre-emergence) or after 8 days cultivation (post-emergence) under controlled conditions in a glasshouse (at 24/16° C., day/night; 14 hours light; 65% humidity), the plants are sprayed with an aqueous spray solution derived from the formulation of the technical active ingredient in acetone/water (50:50) solution containing 0.5% Tween 20 (polyoxyethelyene sorbitan monolaurate, CAS RN 9005-64-5). Compounds are applied at 500 g/h unless otherwise stated. The test plants are then grown in a glasshouse under controlled conditions in a glasshouse (at 24/16° C., day/night; 14 hours light; 65% humidity) and watered twice daily. After 13 days for pre and post-emergence, the test is evaluated for the percentage damage caused to the plant. The biological activities are shown in the following table on a five point scale (5=80-100%; 4=60-79%; 3=40-59%; 2=20-39%; 1=0-19%).

[2] = system: Echinochloa crus-galli (ECHCG); assay: Post-emergence herbicidal glasshouse test; conditions: evaluated after 13 days, five point scale
Experimental: as §1

[3] = system: Ipomoea hederacea (IPOHE); assay: Post-emergence herbicidal glasshouse test; conditions: evaluated after 13 days, five point scale
Experimental: as §1

Lolium perenne (LOLPE) [4] = assay: Post-emergence herbicidal glasshouse test; conditions: applied at 250 g/ha, evaluated after 13 days, five point scale
Experimental: as §1

Setaria faberi (SETFA) [5] = assay: Post-emergence herbicidal glasshouse test; conditions: evaluated after 13 days, five point scale
Experimental: as §1

Solanum nigrum (SOLNI) [6] = assay: Post-emergence herbicidal glasshouse test; conditions: applied at 250 g/ha, evaluated after 13 days, five point scale
Experimental: as §1

[7] = system: Amaranthus retoflexus (AMARE); assay: Pre-emergence herbicidal glasshouse test; conditions: evaluated after 13 days, five point scale
Experimental: as §1

[8] = system: Echinochloa crus-galli (ECHCG); assay: Pre-emergence herbicidal glasshouse test; conditions: evaluated after 13 days, five point scale
Experimental: as §1

[9] = system: Ipomoea hederacea (IPOHE); assay: Pre-emergence herbicidal glasshouse test; conditions: evaluated after 13 days, five point scale
Experimental: as §1

Lolium perenne (LOLPE) [10] = assay: Pre-emergence herbicidal glasshouse test; conditions: applied at 250 g/ha, evaluated after 13 days, five point scale
Experimental: as §1

Setaria faberi (SETFA) [11] = assay: Pre-emergence herbicidal glasshouse test; conditions: evaluated after 13 days, five point scale
Experimental: as §1

Solanum nigrum (SOLNI) [12] = assay: Pre-emergence herbicidal glasshouse test; conditions: applied at 250 g/ha, evaluated after 13 days, five point scale
Experimental: as §1

Row | SMILES | percentage damage caused to the plant, POST Application AMARE ([1]; applied at 250 g/ha) | percentage damage caused to the plant, POST Application ECHCG ([2]; applied at 250 g/ha) | percentage damage caused to the plant, POST Application IPOHE ([3]; applied at 250 g/ha) | percentage damage caused to the plant, POST Application LOLPE (Lolium perenne (LOLPE) [4]) | percentage damage caused to the plant, POST Application SETFA (Setaria faberi (SETFA) [5]; applied at 250 g/ha) | percentage damage caused to the plant, POST Application SOLNI (Solanum nigrum (SOLNI) [6]) | percentage damage caused to the plant, PRE Application AMARE ([7]; applied at 250 g/ha) | percentage damage caused to the plant, PRE Application ECHCG ([8]; applied at 250 g/ha) | percentage damage caused to the plant, PRE Application IPOHE ([9]; applied at 250 g/ha) | percentage damage caused to the plant, PRE Application LOLPE (Lolium perenne (LOLPE) [10]) | percentage damage caused to the plant, PRE Application SETFA (Setaria faberi (SETFA) [11]; applied at 250 g/ha) | percentage damage caused to the plant, PRE Application SOLNI (Solanum nigrum (SOLNI) [12]) | percentage damage caused to the plant, POST Application AMARE ([1]; applied at 500 g/h) | percentage damage caused to the plant, POST Application ECHCG ([2]; applied at 500 g/h) | percentage damage caused to the plant, POST Application IPOHE ([3]; applied at 500 g/h) | percentage damage caused to the plant, POST Application SETFA (Setaria faberi (SETFA) [5]; applied at 500 g/h) | percentage damage caused to the plant, PRE Application AMARE ([7]; applied) | percentage damage caused to the plant, PRE Application ECHCG ([8]; applied at 500 g/h) | percentage damage caused to the plant, PRE Application IPOHE ([9]; applied at 500 g/h) | percentage damage caused to the plant, PRE Application SETFA (Setaria faberi (SETFA) [11]; applied at 500 g/h)
1 | Cn1nnnc1NC(=O)c1cc2cnc(C(F)(F)F)nc2c(-c2ccccc2)c1C(F)(F)F [Compound 1.001] | 5 (5=80-100%) | 5 (5=80-100%) | 5 (5=80-100%) | 4 (4=60-79%) | 5 (5=80-100%) | 5 (5=80-100%) | 5 (5=80-100%) | 5 (5=80-100%) | 4 (4=60-79%) | 1 (1=0-19%) | 3 (3=40-59%) | 5 (5=80-100%) |  |  |  |  |  |  |  | 
2 | Cc1c(C(=O)Nc2nnnn2C)cc2cnc(C(F)(F)F)nc2c1-c1ccccc1 [Compound 1.006] |  |  |  |  |  |  |  |  |  |  |  |  | 5 (5=80-100%) | 5 (5=80-100%) | 5 (5=80-100%) | 5 (5=80-100%) | 5 (5=80-100%) | 2 (2=20-39%) | 3 (3=40-59%) | 5 (5=80-100%)
3 | Cn1nnnc1NC(=O)c1cc2cnc(C(F)(F)F)nc2c(-c2ccccc2)c1Cl [Compound 1.021] |  |  |  |  |  |  |  |  |  |  |  |  | 5 (5=80-100%) | 5 (5=80-100%) | 5 (5=80-100%) | 5 (5=80-100%) | 5 (5=80-100%) | 5 (5=80-100%) | 5 (5=80-100%) | 5 (5=80-100%)
4 | Cn1nnnc1NC(=O)c1cc2cnc(C3CC3)nc2c(-c2ccccc2)c1Cl [Compound 1.028] |  |  |  |  |  |  |  |  |  |  |  |  | 5 (5=80-100%) | 5 (5=80-100%) | 5 (5=80-100%) | 5 (5=80-100%) | 5 (5=80-100%) | 5 (5=80-100%) | 3 (3=40-59%) | 5 (5=80-100%)
5 | CC(C)c1ncc2cc(C(=O)Nc3nnnn3C)c(Cl)c(-c3ccccc3)c2n1 [Compound 1.035] |  |  |  |  |  |  |  |  |  |  |  |  | 5 (5=80-100%) | 5 (5=80-100%) | 5 (5=80-100%) | 5 (5=80-100%) | 5 (5=80-100%) | 5 (5=80-100%) | 4 (4=60-79%) | 5 (5=80-100%)
6 | Cn1nnnc1NC(=O)c1cc2cncnc2c(-c2ccccc2)c1Cl [Compound 1.042] |  |  |  |  |  |  |  |  |  |  |  |  | 5 (5=80-100%) | 5 (5=80-100%) | 5 (5=80-100%) | 5 (5=80-100%) | 5 (5=80-100%) | 5 (5=80-100%) | 5 (5=80-100%) | 5 (5=80-100%)
